Laboratory results: US20100016232A1, “Treatment Of Inflammatory Diseases With Mammal Beta Defensins” (Novozymes A/S, priority 2008, published 2010)
Where no end group is shown, it is not given here.

Tested on: DSS-induced colitis in the mouse
Assay: 10-day DSS-induced colitis, Disease Activity Index (Example 5)
Type: in vivo
Procedure: Animals were divided into 5 experimental groups.
Colitis was induced in mice by supplementing their drinking water with DSS 2% for 7 days.
Daily clinical assessment of DSS-treated animals was carried out, with the calculation of a validated clinical Disease Activity Index (DAI) ranging from 0 to 4 according to the following parameters: stool consistency, presence or absence of rectal bleeding and weight loss:
Bodyweight loss was calculated as the percent difference between the original bodyweight (Day 1) and the actual bodyweight on each experimental day (2-10).
The appearance of diarrhoea is defined as mucus/faecal material adherent to anal fur. Rectal bleeding is defined as diarrhoea containing visible blood/mucus or gross rectal bleeding. The maximum score of the DAI each day is 12.

hBD2: human beta defensin 2, SEQ ID NO:2; produced recombinantly in E. coli (Example 1); hBD2 of Tables 16-18 was prepared by chemical synthesis (GIGDPVTCLKSGAICHPVFCPRRYKQIGTCGLPGTKCCKKP; ends and bridges not checked; cysteine pairing not given here; listed as Homo sapiens)
DAI score (0.1 mg/kg i.v. daily, Day 1): 0.00 | DAI score (0.1 mg/kg i.v. daily, Day 2): 0.20 | DAI score (0.1 mg/kg i.v. daily, Day 3): 0.80 | DAI score (0.1 mg/kg i.v. daily, Day 4): 2.90 | DAI score (0.1 mg/kg i.v. daily, Day 5): 2.80 | DAI score (0.1 mg/kg i.v. daily, Day 6): 3.20 | DAI score (1 mg/kg i.v. daily, Day 1): 0.00 | DAI score (1 mg/kg i.v. daily, Day 2): 0.00 | DAI score (1 mg/kg i.v. daily, Day 3): 0.22 | DAI score (1 mg/kg i.v. daily, Day 4): 2.22 | DAI score (1 mg/kg i.v. daily, Day 5): 2.44 | DAI score (1 mg/kg i.v. daily, Day 6): 2.89 | DAI score (1 mg/kg i.v. daily, Day 7): 2.22 | DAI score (1 mg/kg i.v. daily, Day 8): 3.67 | DAI score (1 mg/kg i.v. daily, Day 9): 5.22 | DAI score (10 mg/kg i.v. daily, Day 1): 0.00 | DAI score (10 mg/kg i.v. daily, Day 2): 0.60 | DAI score (10 mg/kg i.v. daily, Day 3): 1.00 | DAI score (10 mg/kg i.v. daily, Day 4): 3.67 | DAI score (10 mg/kg i.v. daily, Day 5): 3.11 | DAI score (10 mg/kg i.v. daily, Day 6): 3.22 | DAI score (10 mg/kg i.v. daily, Day 7): 2.11 | DAI score (10 mg/kg i.v. daily, Day 8): 4.11 | DAI score (10 mg/kg i.v. daily, Day 9): 6.78 | DAI score (10 mg/kg i.v. daily, Day 10): 7.33
